According to ChEMBL document CHEMBL1240317, “Probing cell-division phenotype space and Polo-like kinase function using small molecules” (Nat Chem Biol, 2006):
Active and inactive are the calls of the source. The rule behind the calls is not given here.

Tests used:
Type in all cases: functional, cell-based
Details in all cases: Chlorocebus aethiops
[1] = tested on: BSC-1; assay: Induction of severe microtubule disruption in african green monkey BSC1 cells at 20 uM after 4 hrs by immunocytochemistry
[2] = tested on: BSC-1; assay: Induction of reduced mitotic index in african green monkey BSC1 cells at 20 uM after 4 hrs by immunocytochemistry
[3] = tested on: BSC-1; assay: Induction of deffects in mitotic spindle in african green monkey BSC1 cells at 20 uM after 4 hrs by immunocytochemistry

Structure (SMILES) | Activity [1] | Activity [2] | Activity [3]
c1ccc(-c2nccn2-c2ccnc(Nc3ccc4ncsc4c3)n2)cc1 | Active |  | 
O=C(c1ccccc1)c1ccccc1Nc1ncc([N+](=O)[O-])c(Nc2ccc(Cl)c(Cl)c2)n1 | Active | Active | Active
CCCCNc1ncc([N+](=O)[O-])c(Nc2ccccc2C(=O)c2ccccc2)n1 | Active | Active | Active
NC(=O)c1ccccc1Nc1nc(NC2CCCC2)ncc1[N+](=O)[O-] | Active | Active | Active
O=[N+]([O-])c1cnc(Nc2ccc3[nH]ccc3c2)nc1NC1CCCC1 | Active | Active | Active
CN1CCN(c2ccc(Nc3ncc([N+](=O)[O-])c(Nc4ccccc4C(N)=O)n3)cc2)CC1 | Active |  | 
CC(=O)Nc1ccc(Nc2ccnc(Nc3ccc4ccccc4c3)n2)cc1 | Active |  | 
O=C(c1ccccc1)c1ccccc1Nc1nc(NCCCN2CCCC2=O)ncc1[N+](=O)[O-] |  |  | Active
O=[N+]([O-])c1cnc(Nc2cccc3ncccc23)nc1Nc1ccc2ncsc2c1 | Active |  | 
Cc1cc(Nc2cc(C3CC3)[nH]n2)nc(Nc2ccc(CC#N)cc2)n1 | Active |  | 
CC(C)(C)c1ccc(Nc2nccc(-n3ccnc3-c3ccccc3)n2)cc1 |  |  | Active
O=[N+]([O-])c1cnc(Nc2ccc3ccccc3c2)nc1Nc1ccc2ncsc2c1 |  |  | Active
COc1ccc(Nc2ncc([N+](=O)[O-])c(Nc3ccc4[nH]ccc4c3)n2)cc1 | Active |  | 
CC(C)(C)c1ccc(Nc2ncc([N+](=O)[O-])c(Nc3ccc4ncsc4c3)n2)cc1 |  |  | Active
CC(=O)Nc1ccc(Nc2ccnc(Nc3ccc(C(C)(C)C)cc3)n2)cc1 | Active |  | 
CC(=O)Nc1ccc(Nc2ncc([N+](=O)[O-])c(Nc3ccccc3C(N)=O)n2)cc1 |  |  | Active
O=[N+]([O-])c1cnc(Nc2ccc(Cl)c(Cl)c2)nc1Nc1ccc2ncsc2c1 |  |  | Active
Clc1ccc(Nc2nccc(Nc3ccc4c(c3)CCC4)n2)cc1Cl |  |  | Active

Structure (SMILES) | Activity [1] | Activity [2] | Activity [3]
O=[N+]([O-])c1cnc(-n2ccnc2-c2ccccc2)nc1Nc1ccc2ncsc2c1 |  |  | Active
O=C(c1ccccc1)c1ccccc1Nc1nc(NC(CO)Cc2ccccc2)ncc1[N+](=O)[O-] (stereo not drawn) |  |  | Active
COc1cc(Nc2ncc([N+](=O)[O-])c(Nc3ccccc3C(N)=O)n2)cc(OC)c1OC | Active |  | 
CC(=O)Nc1ccc(Nc2nccc(Nc3ccc4[nH]ccc4c3)n2)cc1 | Active |  | 
CC(=O)Nc1ccc(Nc2ncc([N+](=O)[O-])c(NC3CCCC3)n2)cc1 |  | Active | 
O=C(c1ccccc1)c1ccccc1Nc1nc(NCc2cccs2)ncc1[N+](=O)[O-] |  | Active | 
CC(=O)Nc1ccc(Nc2ccnc(Nc3ccc4ncsc4c3)n2)cc1 | Active |  | 
CN1CCN(c2ccnc(Sc3cccc(Cl)c3)n2)CC1 |  |  | Active
CC(=O)Nc1ccc(Nc2ccnc(Nc3ccc(Cl)cc3Cl)n2)cc1 | Active |  | 
O=[N+]([O-])c1cnc(Nc2ccc3[nH]ccc3c2)nc1Nc1ccc2ncsc2c1 |  |  | Active
COc1cc(Nc2ncc([N+](=O)[O-])c(Nc3ccc4c(c3)OCO4)n2)cc(OC)c1OC | Active |  | 
CC(C)(Nc1ncc([N+](=O)[O-])c(Nc2ccccc2C(N)=O)n1)c1ccccc1 | Active |  | 
CC(C)(C)c1ccc(Nc2ncc([N+](=O)[O-])c(Nc3ccccc3C(N)=O)n2)cc1 | Active |  | 
CCCCNc1nc(Nc2ccc(NC(C)=O)cc2)ncc1[N+](=O)[O-] |  |  | Active
O=[N+]([O-])c1cnc(Cl)nc1NC1CCCC1 |  |  | Active
c1cc(Nc2ccc3c(c2)OCO3)nc(Nc2ccc3ncsc3c2)n1 | Active |  | 
O=[N+]([O-])c1cnc(Nc2ccncc2)nc1NC1CCCC1 | Active |  | 
